We go through 17 compounds from ChEMBL document CHEMBL1140156, “Polyoxygenated diterpenes from the sponge Phorbas sp” (2008).

Values after ≈ are worked out from the molar mass of the structure shown. Active and inactive are the calls of the source. No cut-off for these calls is given here.

The test system of one test is K562. Nature of the test: Cytotoxicity against human K562 cells. In kind it is functional. The settings on record: for CC50: read-out: LC50 (the source's name).
The nature of test [1]: Inhibition of isocitrate lyase.

As to `CC(C)=CCCC(C)/C=C/C=C(\C)[C@H]1CC[C@H](C(=O)O)CC1` (some centres undefined), the result (in the test on K562; in test [1]) was inactive.
For the compound `CCCC(=O)O[C@@H]1[C@@H](OC(C)=O)[C@@H](O)C(C)=C[C@@H]2[C@H]3[C@@H](C(C)C)[C@@H](OC(=O)CC(C)C)[C@H](OC(=O)CCC)[C@@]3(C)[C@@H](OC(=O)CCC)C[C@]21C` [GAGUNIN A], the CC50 with K562 amounted to 18.1 µg/mL (≈ 25.6 µM). Further, the IC50 (usually the concentration that inhibits the measured activity by half) in test [1] turned out to be 55 µg/mL (≈ 77.8 µM).
In the case of `CCCC(=O)O[C@@H]1[C@H](C(C)C)[C@@H]2[C@H]3C=C(C)[C@H](O)[C@H](OC(C)=O)[C@@H](OC(=O)CCC)[C@]3(C)C[C@H](OC(=O)CCC)[C@]2(C)[C@H]1OC(=O)CCC` [GAGUNIN B], in the test with K562, the CC50 came out at 3.5 µg/mL (≈ 5.05 µM). The compound also displayed a 50% inhibitory concentration (IC50) in test [1] of 55 µg/mL (≈ 79.4 µM).
Take `CCCC(=O)O[C@@H]1[C@H](C(C)C)[C@@H]2[C@H]3C=C(C)[C@H](O)[C@H](OC(C)=O)[C@@H](OC(=O)CCC)[C@]3(C)C[C@H](OC(=O)CCC)[C@]2(C)[C@H]1OC(C)=O` [GAGUNIN C]: the CC50 in the test on K562 was 0.37 µg/mL (≈ 0.557 µM). Further, the IC50 in test [1] is 55 µg/mL (≈ 82.7 µM).
In the same order, the values of `CCCC(=O)O[C@H]1C[C@]2(C)[C@H]([C@H]1C(C)C)[C@H]1C=C(C)[C@H](O)[C@H](OC(C)=O)[C@@H](OC(=O)CCC)[C@]1(C)C[C@@H]2OC(=O)CCC` [GAGUNIN D] are 0.19 µg/mL (≈ 0.313 µM) and 55 µg/mL (≈ 90.6 µM).
Consider `CCCC(=O)O[C@H]1C[C@]2(C)[C@H]([C@H]1C(C)C)[C@H]1C=C(C)[C@H](OC(C)=O)[C@H](O)[C@@H](OC(=O)CCC)[C@]1(C)C[C@@H]2OC(=O)CCC` [GAGUNIN F], for which, in the test on K562, the CC50 was found to be 0.25 µg/mL (≈ 0.412 µM). In test [1], this compound displayed an IC50 of 55 µg/mL (≈ 90.6 µM).
Consider `CCCC(=O)O[C@H]1C[C@]2(C)[C@H](C=C(C)[C@H](OC(C)=O)[C@H](O)[C@H]2OC(=O)CCC)[C@H]2[C@@H](C(C)C)[C@@H](OC(C)=O)C[C@]21C` [GAGUNIN G], for which, in the test on K562, the CC50 was 0.45 µg/mL (≈ 0.778 µM). The compound further had a half-maximal inhibitory concentration (IC50) in test [1] of 55 µg/mL (≈ 95 µM).
In the same order, the values of `CCCC(=O)O[C@@H]1[C@H](C(C)C)[C@@H]2[C@H]3C=C(C)[C@H](O)[C@H](OC(C)=O)[C@@H](OC(=O)CCC)[C@]3(C)C[C@H](OC(=O)CC)[C@]2(C)[C@H]1OC(=O)CCC` [GAGUNIN H] are 10 µg/mL (≈ 14.7 µM) and 55 µg/mL (≈ 81 µM).
With `CCCC(=O)O[C@@H]1[C@H](C(C)C)[C@@H]2[C@H]3C=C(C)[C@H](O)[C@H](OC(C)=O)[C@@H](OC(=O)CCC)[C@]3(C)C[C@H](OC(C)=O)[C@]2(C)[C@H]1OC(=O)CCC` [GAGUNIN I], in the test with K562, the CC50 stood at 11.5 µg/mL (≈ 17.3 µM). For the same compound, the IC50 in test [1] came out at 55 µg/mL (≈ 82.7 µM).
Taken in the same sequence, the figures for `CCCC(=O)O[C@@H]1[C@H](C(C)C)[C@@H]2[C@H]3C=C(C)[C@H](O)[C@H](OC(C)=O)[C@@H](OC(=O)CCC)[C@]3(C)C[C@H](OC(=O)CCC)[C@]2(C)[C@H]1OC(=O)CC` [GAGUNIN J] were 9.1 µg/mL (≈ 13.4 µM) and 55 µg/mL (≈ 81 µM).
With `CCCCC(=O)O[C@@H]1[C@H](C(C)C)[C@@H]2[C@H]3C=C(C)[C@H](O)[C@H](OC(C)=O)[C@@H](OC(=O)CCC)[C@]3(C)C[C@H](OC(=O)CCC)[C@]2(C)[C@H]1OC(=O)CCC` [GAGUNIN K], in the test on K562, the CC50 was found to be 17.5 µg/mL (≈ 24.8 µM). Further, in test [1], the half-maximal inhibitory concentration (IC50) was determined as 55 µg/mL (≈ 77.8 µM).
Consider `CCCC(=O)O[C@H]1C[C@]2(C)[C@H]([C@H]1C(C)C)[C@H]1C=C(C)[C@H](O)[C@H](OC(C)=O)[C@@H](OC(=O)CCC)[C@]1(C)C[C@@H]2OC(C)=O` [GAGUNIN L], for which, in the test on K562, the CC50 came out at 12.5 µg/mL (≈ 21.6 µM). The compound also showed an IC50 in test [1] of 55 µg/mL (≈ 95 µM).
For `CCCC(=O)O[C@H]1C[C@]2(C)[C@H]([C@H]1C(C)C)[C@H]1C=C(C)[C@H](O)[C@H](OC(C)=O)[C@@H](OC(=O)CCC)[C@]1(C)C[C@@H]2OC(=O)CC(C)C` [GAGUNIN M], the CC50 in the test with K562 was found to be 0.71 µg/mL (≈ 1.14 µM). Moreover, it took 55 µg/mL (≈ 88.6 µM) to reach half-maximal inhibition in test [1] (IC50).
`CCCC(=O)O[C@H]1C[C@]2(C)[C@H]([C@H]1C(C)C)[C@H]1C=C(C)[C@H](OC(C)=O)[C@H](O)[C@@H](OC(=O)CCC)[C@]1(C)C[C@@H]2OC(C)=O` [GAGUNIN N]: the CC50 in the test with K562 is over 50 µg/mL. In addition, the half-inhibitory concentration (IC50) in test [1] came out at 55 µg/mL (≈ 95 µM).
`CCCC(=O)O[C@@H]1[C@H](C(C)C)[C@@H]2[C@H]3C=C(C)[C@H](OC(C)=O)[C@H](O)[C@@H](OC(=O)CCC)[C@]3(C)C[C@H](OC(=O)CCC)[C@]2(C)[C@H]1OC(=O)CCC` [GAGUNIN O]: in the test with K562, the CC50 amounted to 11.1 µg/mL (≈ 16 µM). The compound further came in with a half-inhibitory concentration (IC50) in test [1] of 55 µg/mL (≈ 79.4 µM).
As for `CCCC(=O)O[C@@H]1[C@H](C(C)C)[C@@H]2[C@H]3C=C(C)[C@H](O)[C@H](OC(C)=O)[C@@H](OC(C)=O)[C@]3(C)C[C@H](OC(=O)CCC)[C@]2(C)[C@H]1OC(=O)CCC` [GAGUNIN P], the CC50 in the test on K562 was 8.5 µg/mL (≈ 12.8 µM). In test [1], this compound registered a concentration for half-maximal inhibition (IC50) of 55 µg/mL (≈ 82.7 µM).
As to `CCCC(=O)O[C@@H]1[C@H](C(C)C)[C@@H]2[C@H]3C=C(C)[C@H](O)[C@H](OC(=O)CC)[C@@H](OC(=O)CCC)[C@]3(C)C[C@H](OC(=O)CCC)[C@]2(C)[C@H]1OC(=O)CCC` [GAGUNIN Q], the CC50 in the test with K562 is over 50 µg/mL. Further, in test [1], inhibition was half-maximal at 55 µg/mL (≈ 77.8 µM) (IC50).
